Laboratory results as given in the CheMixHub viscosity set.
± gives the uncertainty stated by the source.

Assay: xn = mol fraction of the nth substance listed

COc1ccccc1N + CNC=O
viscosity [mPa·s], 100 kPa
Conditions	x2 = 0.0714	x2 = 0.1715	x2 = 0.2636	x2 = 0.3576	x2 = 0.4701	x2 = 0.5625	x2 = 0.6556	x2 = 0.7454	x2 = 0.8325
303.15 K	4.69 ± 0.067	4.361 ± 0.066	4.058 ± 0.065	3.747 ± 0.065	3.373 ± 0.064	3.065 ± 0.063	2.753 ± 0.062	2.45 ± 0.062	2.155 ± 0.062
308.15 K	4.301 ± 0.066	4.001 ± 0.065	3.725 ± 0.065	3.441 ± 0.064	3.1 ± 0.063	2.817 ± 0.063	2.532 ± 0.062	2.256 ± 0.062	1.986 ± 0.061
313.15 K	3.99 ± 0.065	3.713 ± 0.064	3.456 ± 0.064	3.192 ± 0.063	2.875 ± 0.063	2.613 ± 0.062	2.348 ± 0.062	2.091 ± 0.061	1.841 ± 0.061
318.15 K	3.702 ± 0.065	3.446 ± 0.064	3.209 ± 0.063	2.964 ± 0.063	2.67 ± 0.062	2.428 ± 0.062	2.182 ± 0.062	1.944 ± 0.061	1.711 ± 0.061

C1CCCCC1 + CO
viscosity [mPa·s], 101.32 kPa
Conditions	321.15 K	322.15 K	323.15 K
x2 = 0.121	0.5549 ± 0.011	0.5469 ± 0.011	0.539 ± 0.011
x2 = 0.226	0.5465 ± 0.011	0.5386 ± 0.011	0.5465 ± 0.011
x2 = 0.396	0.5423 ± 0.011	0.5334 ± 0.011	0.5239 ± 0.01
x2 = 0.467	0.5629 ± 0.011	0.5508 ± 0.011	0.5356 ± 0.011
x2 = 0.5	0.5933 ± 0.011	0.5559 ± 0.011	0.5379 ± 0.011
x2 = 0.527	0.5771 ± 0.011	0.5464 ± 0.011	0.53 ± 0.011
x2 = 0.637	0.5116 ± 0.01	0.5017 ± 0.01	0.4925 ± 0.01
x2 = 0.724	0.4688 ± 0.01	0.4624 ± 0.01	0.4564 ± 0.01
x2 = 0.762	0.4569 ± 0.01	0.4514 ± 0.01	0.4459 ± 0.01
x2 = 0.798	0.4443 ± 0.01	0.4363 ± 0.01	0.4338 ± 0.01
x2 = 0.83	0.4338 ± 0.01	0.4284 ± 0.01	0.4233 ± 0.01
x2 = 0.86	0.4249 ± 0.01	0.4198 ± 0.01	0.4148 ± 0.01
x2 = 0.913	0.4122 ± 0.01	0.4074 ± 0.01	0.4024 ± 0.01
x2 = 0.959	0.4053 ± 0.01	0.4003 ± 0.01	0.3956 ± 0.01

COC(C)=O + CO
298.15 K, 101.33 kPa
Conditions	viscosity [mPa·s]
x1 = 0.0996	0.498 ± 0.019
x1 = 0.2029	0.462 ± 0.017
x1 = 0.3433	0.421 ± 0.016
x1 = 0.4025	0.41 ± 0.016
x1 = 0.4912	0.397 ± 0.015
x1 = 0.6272	0.386 ± 0.015
x1 = 0.7892	0.38 ± 0.015
x1 = 0.8704	0.381 ± 0.015

COCCOC + CO
298.15 K, 101 kPa
Conditions	viscosity [mPa·s]
x1 = 0.03801	0.5333 ± 0.0039
x1 = 0.08163	0.5252 ± 0.0039
x1 = 0.1322	0.5142 ± 0.0038
x1 = 0.1916	0.4946 ± 0.0037
x1 = 0.2623	0.479 ± 0.0036
x1 = 0.3478	0.4627 ± 0.0035
x1 = 0.4534	0.4496 ± 0.0034
x1 = 0.5871	0.4355 ± 0.0033
x1 = 0.7619	0.4209 ± 0.0032

O=C(O)c1ccccc1 + CO
viscosity [mPa·s]
Conditions	298.15 K	303.15 K	308.15 K	313.15 K	318.15 K
101 kPa, x1 = 0.15	–	1.196 ± 0.0098	–	–	0.9466 ± 0.0081
101 kPa, x1 = 0.151	1.311 ± 0.035	1.196 ± 0.032	1.098 ± 0.029	1.014 ± 0.027	0.9466 ± 0.025
101 kPa, x1 = 0.16	–	1.29 ± 0.01	–	–	1.002 ± 0.0088
101 kPa, x1 = 0.179	–	1.36 ± 0.036	1.25 ± 0.033	1.147 ± 0.03	1.053 ± 0.028
101 kPa, x1 = 0.18	–	1.36 ± 0.011	–	–	1.053 ± 0.0091
101 kPa, x1 = 0.2	–	–	–	–	1.133 ± 0.0094
101.33 kPa, x1 = 0.15	1.311 ± 0.0092	1.196 ± 0.0084	1.098 ± 0.0077	1.014 ± 0.0071	0.9466 ± 0.0066
101.33 kPa, x1 = 0.1514	–	1.196 ± 0.032	–	–	0.9466 ± 0.025
101.33 kPa, x1 = 0.1626	–	1.29 ± 0.034	–	–	1.002 ± 0.027
101.33 kPa, x1 = 0.1788	–	1.36 ± 0.036	–	–	1.053 ± 0.028
101.33 kPa, x1 = 0.18	–	1.36 ± 0.0095	1.25 ± 0.0087	1.147 ± 0.008	1.053 ± 0.0074
101.33 kPa, x1 = 0.1961	–	–	–	–	1.133 ± 0.03

COC(C)=O + COCCO
viscosity [mPa·s], 101 kPa
Conditions	x2 = 0.0993	x2 = 0.2004	x2 = 0.2993	x2 = 0.4009	x2 = 0.4996	x2 = 0.6014	x2 = 0.7013	x2 = 0.8006	x2 = 0.9001
298.15 K	0.429 ± 0.036	0.484 ± 0.041	0.549 ± 0.046	0.636 ± 0.053	0.729 ± 0.061	0.862 ± 0.072	1.012 ± 0.084	1.218 ± 0.1	1.453 ± 0.12
303.15 K	0.407 ± 0.034	0.457 ± 0.039	0.517 ± 0.043	0.596 ± 0.05	0.679 ± 0.057	0.797 ± 0.067	0.929 ± 0.077	1.112 ± 0.093	1.317 ± 0.11
308.15 K	0.387 ± 0.033	0.432 ± 0.036	0.486 ± 0.041	0.556 ± 0.047	0.632 ± 0.053	0.738 ± 0.062	0.858 ± 0.072	1.025 ± 0.085	1.2 ± 0.1

COc1ccccc1N + COCCO
303.15 K, 101 kPa
Conditions	viscosity [mPa·s]
x1 = 0.0724	2.225 ± 0.041
x1 = 0.1494	2.507 ± 0.046
x1 = 0.2314	2.808 ± 0.051
x1 = 0.319	3.132 ± 0.057
x1 = 0.4127	3.478 ± 0.063
x1 = 0.5131	3.794 ± 0.069
x1 = 0.6211	4.083 ± 0.074
x1 = 0.7376	4.343 ± 0.079
x1 = 0.8635	4.614 ± 0.084

c1ccc2ncccc2c1 + COc1ccccc1O
303.15 K, 101 kPa
Conditions	viscosity [mPa·s]
x1 = 0.1	5.95 ± 0.16
x1 = 0.2	8.05 ± 0.22
x1 = 0.3	10.04 ± 0.27
x1 = 0.333	10.54 ± 0.29
x1 = 0.36	10.97 ± 0.3
x1 = 0.38	11.45 ± 0.31
x1 = 0.4	11.65 ± 0.32
x1 = 0.44	11.66 ± 0.32
x1 = 0.46	11.57 ± 0.32
x1 = 0.5	10.95 ± 0.3
x1 = 0.6	8.98 ± 0.24
x1 = 0.7	6.77 ± 0.18
x1 = 0.8	4.87 ± 0.13
x1 = 0.9	3.88 ± 0.1

CCC(C)=O + CS(C)=O
viscosity [mPa·s], 101.3 kPa
Conditions	298.15 K	308.15 K	318.15 K
x1 = 0.054	1.762 ± 0.046	1.448 ± 0.038	1.23 ± 0.032
x1 = 0.107	1.615 ± 0.043	1.335 ± 0.035	1.142 ± 0.03
x1 = 0.213	1.372 ± 0.036	1.138 ± 0.03	0.982 ± 0.026
x1 = 0.317	1.162 ± 0.031	0.979 ± 0.026	0.852 ± 0.023
x1 = 0.419	0.988 ± 0.026	0.83 ± 0.022	0.734 ± 0.019
x1 = 0.52	0.835 ± 0.022	0.712 ± 0.019	0.639 ± 0.017
x1 = 0.619	0.717 ± 0.019	0.621 ± 0.017	0.561 ± 0.015
x1 = 0.716	0.627 ± 0.017	0.547 ± 0.015	0.496 ± 0.013
x1 = 0.812	0.54 ± 0.014	0.473 ± 0.013	0.436 ± 0.012
x1 = 0.907	0.462 ± 0.012	0.407 ± 0.011	0.383 ± 0.01
x1 = 0.954	0.438 ± 0.012	0.379 ± 0.01	0.361 ± 0.01

OCCNCCO + C[N+](C)(C)CCO.[Cl-]
viscosity [mPa·s], 101 kPa
Conditions	x2 = 0.091	x2 = 0.111	x2 = 0.143
293.15 K	611.4 ± 38	565.3 ± 35	567 ± 35
313.15 K	151.4 ± 7.5	150.4 ± 7.4	149.2 ± 7.3
